From patent publication US12240844B2 (Voronoi, Inc., priority 2019, dated 2025)

Experiments:
[1] = target: T1, human GST-DYRK1A (full length) (Homo sapiens, UniProt Q13627); test: GST-DYRK1A enzyme inhibition, ADP-Glo kinase assay; format: biochemical; details: read-out: DYRK1 IC50
T1 construct: purified human GST-DYRK1A (full length, Thermo scientifics) enzyme; GST; purchased Thermo scientifics
Outline: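 Full-length human GST-DYRK1A (10 ng) incubated with 10 uM ATP and specific substrate for 1 h at 25° C in 40 mM Tris-HCl pH 7.4, 20 mM MgCl2, 0.5 mg/mL BSA, 50 uM DTT. ADP formation read by ADP-Glo luminescence; IC50 (nM) versus solvent control, triplicate.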

human GST-CLK1 (129-end) = target: T2, human GST-CLK1 (129-end) (Homo sapiens, UniProt P49759); test: GST-CLK1 enzyme inhibition, ADP-Glo kinase assay; format: biochemical; details: ATP 10 uM
T2 construct: purified human GST-CLK1 (129-end, Signalchem) enzyme; GST; purchased Signalchem
Outline: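 GST-CLK1 (129-end, 3 ng) reacted with 10 uM ATP and substrate in 40 mM Tris-HCl pH 7.4, 20 mM MgCl2, 0.5 mg/mL BSA, 50 uM DTT, 1 h at 25° C. ADP-Glo luminescence normalised to solvent control; IC50 from triplicate data.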

MDA-MB-468 cell line = test: MDA-MB-468 cancer cell proliferation inhibition (Cell Titer-Glo); format: cell-based; details: Homo sapiens, MDA-MB-468 triple-negative breast cancer cell line, 72 hours
Procedure: In order to evaluate the cancer cell proliferation inhibitory activity of the compounds of the present invention, the following experiments were performed.
To evaluate the cancer cell proliferation inhibitory effect, the cell growth rate analysis was performed while culturing MDA-MB-231 cell line (Korean Cell Line Bank #30026) and MDA-MB-468 cell line as the triple-negative breast cancer cell line, and SHP-77 (ATCC #CRL-2195) as the small cell lung cancer cell line in DMEM (HyClone #SH30243) and RPMI medium (HyClone #SH3027.01), respectively. More specifically, the cell lines were each plated at 2000 cells/100 μl in each well of a 96-well flat-bottom plate (coming #3903), and then the example compounds having eleven concentrations which were diluted by ⅓ so that the final concentrations were 10.000000, 3.333333, 1.111111, 0.370370, 0.123457, 0.041152, 0.013717, 0.004572, 0.001524, 0.000508 and 0.000169 μM were treated. After 72 hours, 100 μl of Cell Titer-Glo (Promega G7573) was treated, incubated at RT for 10 minutes, and then luminescence was measured using a microplate reader. The measured luminescence degree was calculated as GI50 using Prism (version 8.2 GraphPad) software.
In the table below, the following designations were used for the evaluation of proliferation inhibitory activity.

LRRK2 = LRRK2 (Homo sapiens, UniProt Q5S007); test: LRRK2 enzyme inhibition, ADP-Glo kinase assay; format: biochemical; set-up: purchased Invitrogen PR8604B
Outline: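 Purified human LRRK2 (25 ng) in 40 mM Tris-HCl pH7.4, 20 mM MgCl2, 0.5 mg/ml BSA, 50 μM DTT with 10 μM ATP and substrate ([…]), 2 h at 25° C. Final compound 50 to 0.000001024 μM, 12-point dilution. ADP-Glo luminescence vs solvent control; IC50 (nM).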

LRRK2 (G2019S) = LRRK2 (G2019S) (Homo sapiens, UniProt Q5S007, G2019S); test: LRRK2 G2019S enzyme inhibition, ADP-Glo kinase assay; format: biochemical; set-up: purchased SignalChem L10-12GG
Outline: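 Purified human LRRK2 G2019S (16 ng) with 25 μM ATP and 0.2 μg substrate, 2 h at 25° C in 40 mM Tris-HCl pH 7.4, 20 mM MgCl2, 0.5 mg/ml BSA, 50 μM DTT; compound at 12 final concentrations from 50 μM downward. ADP-Glo luminescence versus solvent control gave IC50 (nM).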

MDA-MB-231 cell line = test: MDA-MB-231 cancer cell proliferation inhibition (Cell Titer-Glo); format: cell-based; details: Homo sapiens, MDA-MB-231 triple-negative breast cancer cell line, 72 hours
Outline: (§1)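 GI50 comes from CellTiter-Glo luminescence, read 10 min after reagent addition at RT, following 72 h compound treatment. Eleven concentrations were used (⅓ steps, highest 10 μM final) on 2000 cells/well. MDA-MB-231 and MDA-MB-468 were grown in DMEM, SHP-77 in RPMI.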

SHP-77 = SHP-77 cancer cell proliferation inhibition (Cell Titer-Glo); format: cell-based; details: Homo sapiens, SHP77, SHP-77 small cell lung cancer cell line, 72 hours
Outline: as §1

IL-6 = IL-6 secretion inhibition in LPS-treated THP-1 cells (ELISA); format: cell-based; details: Homo sapiens, compound 0.5 μM, LPS 500 ng/ml, 24 hours, read-out: THP1/IL6 (% inhib)
Procedure: (§2) In order to evaluate the cytokine secretion inhibitory efficacy of mononuclear cells, THP-1 cells (ATCC, #TIB-202) as a human-derived monocyte cell line were cultured in RPMI-1640 (Hyclone, SH30027.01) media in which 10% fetal bovine serum (Hyclone, SH30084.03), 1% penicillin streptomycin (Welgene, LS202-02) and 50 μM 2-Mercaptoethanol (Gibco, #21985023) were contained. In the test, 1.5-2×10^5 cells/250 μl per each well were dispensed in a 48-well plate (SPL, #30048) and incubated in an incubator at 37° C. and 5% CO2 for 16 hours, and then the compounds were diluted in DMSO so that the final concentration was 0.5 μM. It was treated with Lipopolysaccharides (LPS) (sigma, #L6529) […]. After treatment with the compound, the LPS was treated so that the final concentration was 500 ng/ml, and then the cell culture fluid was collected after culturing for 24 hours, and the degrees of the cytokines IL-6 (R&D system, #D6050) and TNF-α (R&D system, #DTA00D) contained in the culture fluid were collected using each ELISA kit. After performing the experiment according to the manufacturer's instructions, the absorbance at 450 nm was measured and analyzed using a microplate reader.

TNF-α = TNF-α secretion inhibition in LPS-treated THP-1 cells (ELISA); format: cell-based; details: Homo sapiens, compound 0.5 μM, LPS 500 ng/ml, 24 hours, read-out: THP-1/TNF-a (% inhib)
Procedure: as §2

THP-1 = THP-1 GI50 (Table 4, method not given); format: cell-based; details: Homo sapiens; THP-1 cells

T2 sequence (P49759 129-484 limits assumed): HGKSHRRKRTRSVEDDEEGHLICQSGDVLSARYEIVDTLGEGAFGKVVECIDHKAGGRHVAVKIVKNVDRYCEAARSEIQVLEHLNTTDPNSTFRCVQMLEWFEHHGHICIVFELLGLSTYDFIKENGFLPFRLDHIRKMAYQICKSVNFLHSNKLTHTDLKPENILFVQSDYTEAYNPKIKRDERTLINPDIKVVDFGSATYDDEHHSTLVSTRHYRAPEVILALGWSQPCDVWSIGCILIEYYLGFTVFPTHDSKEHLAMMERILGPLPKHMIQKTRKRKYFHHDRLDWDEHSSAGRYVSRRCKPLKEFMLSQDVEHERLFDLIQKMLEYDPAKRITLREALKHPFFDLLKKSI
Chain of LRRK2 (Q5S007 970-2527 limits assumed): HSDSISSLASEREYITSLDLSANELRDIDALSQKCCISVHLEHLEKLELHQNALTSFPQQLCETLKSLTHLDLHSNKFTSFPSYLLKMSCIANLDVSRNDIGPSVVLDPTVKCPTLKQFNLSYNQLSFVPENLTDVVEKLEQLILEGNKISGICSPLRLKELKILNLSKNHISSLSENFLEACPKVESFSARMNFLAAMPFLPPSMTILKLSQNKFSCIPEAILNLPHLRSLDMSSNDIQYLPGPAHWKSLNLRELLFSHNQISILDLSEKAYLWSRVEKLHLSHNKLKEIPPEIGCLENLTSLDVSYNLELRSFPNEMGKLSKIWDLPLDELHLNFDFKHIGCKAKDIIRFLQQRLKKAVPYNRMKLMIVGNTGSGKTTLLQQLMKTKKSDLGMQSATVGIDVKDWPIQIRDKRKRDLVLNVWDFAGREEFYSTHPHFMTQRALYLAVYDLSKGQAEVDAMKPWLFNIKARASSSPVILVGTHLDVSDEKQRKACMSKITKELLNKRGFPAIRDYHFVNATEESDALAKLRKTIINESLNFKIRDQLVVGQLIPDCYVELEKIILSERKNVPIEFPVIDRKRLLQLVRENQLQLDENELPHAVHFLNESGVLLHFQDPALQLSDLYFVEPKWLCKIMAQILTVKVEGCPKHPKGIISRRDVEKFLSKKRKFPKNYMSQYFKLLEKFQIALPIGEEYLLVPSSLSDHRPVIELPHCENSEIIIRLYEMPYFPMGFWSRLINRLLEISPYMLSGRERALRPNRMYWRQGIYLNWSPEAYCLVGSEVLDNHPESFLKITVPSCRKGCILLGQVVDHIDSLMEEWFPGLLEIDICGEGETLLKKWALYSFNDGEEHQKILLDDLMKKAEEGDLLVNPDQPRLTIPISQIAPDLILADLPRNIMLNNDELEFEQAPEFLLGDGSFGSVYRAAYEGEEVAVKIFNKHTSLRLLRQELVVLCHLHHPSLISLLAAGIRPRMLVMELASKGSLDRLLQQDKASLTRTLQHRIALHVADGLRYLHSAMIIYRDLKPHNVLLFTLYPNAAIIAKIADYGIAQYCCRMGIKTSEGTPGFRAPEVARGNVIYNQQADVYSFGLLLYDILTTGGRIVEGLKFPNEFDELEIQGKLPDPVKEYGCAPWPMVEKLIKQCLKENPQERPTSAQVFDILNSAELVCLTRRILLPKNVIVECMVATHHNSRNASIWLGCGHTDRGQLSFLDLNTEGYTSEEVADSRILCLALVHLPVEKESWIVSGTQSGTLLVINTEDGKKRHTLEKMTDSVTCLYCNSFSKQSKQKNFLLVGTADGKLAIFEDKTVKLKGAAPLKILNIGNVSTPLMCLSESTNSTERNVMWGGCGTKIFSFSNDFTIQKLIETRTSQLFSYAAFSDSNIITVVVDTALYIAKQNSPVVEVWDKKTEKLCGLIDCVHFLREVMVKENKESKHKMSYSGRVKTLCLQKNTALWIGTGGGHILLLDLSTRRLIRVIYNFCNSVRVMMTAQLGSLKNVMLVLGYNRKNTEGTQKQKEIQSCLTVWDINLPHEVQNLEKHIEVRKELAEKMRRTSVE
Chain of LRRK2 (G2019S) (Q5S007 970-2527 G2019S limits assumed): as the sequence (Q5S007 970-2527 limits assumed) above, with G1050S counted along it

Structure (SMILES) | IC50 [1] | IC50 (human GST-CLK1 (129-end)) | GI50 (MDA-MB-468 cell line) | IC50 (LRRK2) | IC50 (LRRK2 (G2019S)) | GI50 (MDA-MB-231 cell line) | GI50 (SHP-77) | GI50 (THP-1) | inhibition at 0.5 µM (IL-6) | inhibition at 0.5 µM (TNF-α)
N#Cc1c[nH]c2nc(Nc3ccc(C(=O)N4CCC(N5CCOCC5)CC4)c4c3OCCO4)cc(NC3CCCCC3)c12 [Example 149, 4-(cyclohexylamino)-6-((8-(4-morpholinopiperidine-1-carbonyl)-2,3-dihydrobenzo [b] [1,4]dioxin-5-yl)amino)-1H-pyrrolo[2,3-b]pyridine-3-carbonitrile] | 301 to 1000 nM | 301 to 1000 nM | 101 to 300 nM |  |  |  |  |  |  | 
CNc1cc(Nc2ccc(C(=O)N3CCOCC3)c3c2OCCO3)nc2[nH]cc(C(F)(F)F)c12 [Example 152, (8-((4-(methylamino)-3-(trifluoromethyl)-1H-pyrrolo[2,3-b]pyridin-6-yl)amino)-2,3-dihydrobenzo [b] [1,4]dioxin-5-yl)(morpholino) methanone] | < 100 nM | < 100 nM | 101 to 300 nM | < 100 nM | < 100 nM |  |  |  |  | 
CCNc1cc(Nc2ccc(C(=O)N3CCOCC3)c3c2OCCO3)nc2[nH]cc(C(F)(F)F)c12 [Example 153, (8-((4-(ethylamino)-3-(trifluoromethyl)-1H-pyrrolo[2,3-b]pyridin-6-yl)amino)-2,3-dihydrobenzo[b] [1,4]dioxin-5-yl)(morpholino) methanone] | < 100 nM | < 100 nM |  | < 100 nM | 101 to 300 nM |  |  | 14400 nM | 32.7% | 40.4%

More lines, main results first:

IC50 [1] | IC50 (human GST-CLK1 (129-end)) | GI50 (MDA-MB-468 cell line) | IC50 (LRRK2) | IC50 (LRRK2 (G2019S)) | GI50 (MDA-MB-231 cell line) | GI50 (SHP-77) | GI50 (THP-1) | Structure (SMILES) | inhibition at 0.5 µM (IL-6) | inhibition at 0.5 µM (TNF-α)
301 to 1000 nM | 301 to 1000 nM | 51 to 100 nM | < 100 nM | < 100 nM |  |  |  | N#Cc1c[nH]c2nc(Nc3ccc(C(=O)N4CCOCC4)c4c3OCCO4)cc(NC3CCCC3)c12 [Example 112, 4-(cyclopentylamino)-6-((8-(morpholine-4-carbonyl)-2,3-dihydrobenzo[b] [1,4]dioxin-5-yl)amino)-1H-pyrrolo[2,3-b]pyridine-3-carbonitrile] |  | 
301 to 1000 nM | 301 to 1000 nM | 51 to 100 nM |  |  |  |  |  | N#Cc1c[nH]c2nc(Nc3ccc(C(=O)N4CCOCC4)c4c3OCCO4)cc(NC3CCCCC3)c12 [Example 150, N^4-(cyclohexylamino)-N^6-((8-(morpholine-4-carbonyl)-2,3-dihydrobenzo [b] [1,4]dioxin-5-yl)amino)-1H-pyrrolo[2,3-b]pyridine-3-carbonitrile] |  | 
301 to 1000 nM | 301 to 1000 nM | 101 to 300 nM |  |  | 51 to 100 nM | 51 to 100 nM |  | COc1cc(S(=O)(=O)N2CCC(N3CCOCC3)CC2)ccc1Nc1cc(NC2CCCCC2)c2c(C#N)c[nH]c2n1 [Example 151, N^4-(cyclohexylamino)-N^6-((2-methoxy-4-((4-morpholinopiperidin-1-yl)sulfonyl)phenyl)amino)-1H-pyrrolo[2,3-b]pyridine-3-carbonitrile] |  | 
